Reference: US6737383B1, “Herbicidal oxadiazolidines” (priority 1999, dated 2004)

Tests used:
[1] = test system: soybean; test: Test B pre/postemergence soybean; format: in vivo, Glycine max
How it was run: (§1)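 Response is a visual 0-to-10 score relative to untreated plants, where 0 means no effect and 10 means complete control, taken twelve to sixteen days after application. Treatments went onto soil at planting and onto foliage of 1- to 4-leaf plants, using a surfactant-containing non-phytotoxic solvent.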

[2] = test system: crabgrass; test: Test B pre/postemergence crabgrass; format: in vivo, Digitaria sanguinalis
How it was run: as §1

[3] = test system: sugar beet; test: Test B pre/postemergence sugar beet; format: in vivo, Beta vulgaris
How it was run: as §1

[4] = test system: surinam grass; test: Test B pre/postemergence surinam grass; format: in vivo, Brachiaria decumbens
How it was run: as §1

[5] = test system: smallflower flatsedge; test: Test B flood test smallflower flatsedge; format: in vivo, Cyperus difformis
How it was run: (§2)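 Plants were grown to the 2-leaf stage before treatment with test chemical, then held in a greenhouse for twelve to sixteen days. Injury was visually rated against untreated controls on a 0–10 scale, where 0 is no effect and 10 is complete control.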

[6] = test system: rice; test: Test B flood test rice; format: in vivo, Oryza sativa
How it was run: as §2

[7] = test system: cocklebur; test: Test B pre/postemergence cocklebur; format: in vivo, Xanthium strumarium
How it was run: as §1

[8] = test system: wild oat; test: Test B pre/postemergence wild oat; format: in vivo, Avena fatua
How it was run: as §1

[9] = test system: bamyardgrass; test: Test B flood test barnyardgrass; format: in vivo, Echinochloa crus-galli
How it was run: as §2

[10] = test system: velvetleaf; test: Test B pre/postemergence velvetleaf; format: in vivo, Abutilon theophrasti
How it was run: as §1

[11] = test system: pigweed; test: Test B pre/postemergence pigweed; format: in vivo, Amaranthus retroflexus
How it was run: as §1

[12] = test system: rape; test: Test B pre/postemergence rape; format: in vivo, Brassica napus
How it was run: as §1

[13] = test system: duck salad; test: Test B flood test duck salad; format: in vivo, Heteranthera limosa
How it was run: as §2

[14] = test system: morningglory; test: Test B pre/postemergence morningglory; format: in vivo, Ipomoea hederacea
How it was run: as §1

[15] = test system: bedstraw; test: Test B pre/postemergence bedstraw; format: in vivo, Galium aparine
How it was run: as §1

[16] = test system: corn; test: Test B pre/postemergence corn; format: in vivo, Zea mays
How it was run: as §1

[17] = Postemergence, Rate 125 g/ha, scale of 0 to 10 where 0 is no effect and 10 is complete control
[18] = Preemergence, Rate 62 g/ha, scale 0 to 10 (0 no effect, 10 complete control)
[19] = Preemergence, Rate 125 g/ha, 0 is no effect, 10 is complete control
[20] = Preemergence, Rate 250 g/ha, scale 0 to 10, 0 is no effect, 10 is complete control
[21] = Preemergence, Rate 500 g/ha, scale 0 to 10 (0 no effect, 10 complete control)
[22] = Rate 62 g/ha, Postemergence, scale of 0 to 10 where 0 is no effect and 10 is complete control
[23] = Rate 250 g/ha, Postemergence, scale 0 to 10, 0 is no effect, 10 is complete control
[24] = Rate 500 g/ha, Postemergence, scale 0 to 10
[25] = Postemergence, Rate 1000 g/ha, scale 0 to 10 (0 no effect, 10 complete control)
[26] = Rate 250 g/ha, Postemergence (flood test), scale 0 to 10, 0 is no effect, 10 is complete control
[27] = Rate 500 g/ha, listed under Postemergence (flood test species), scale 0 to 10
[28] = Rate 2000 g/ha, Postemergence, scale 0 to 10

Cc1nsc(C)c1-n1c(=O)on(C(=O)N(c2ccc(F)cc2)C(C)C)c1=O [Compound 157]
Soybean plant response rating [1, 17]: 1
Soybean plant response rating [1, 18]: 0
Soybean plant response rating (0 to 10 scale) [1, 19]: 0
Soybean plant response rating [1, 20]: 0
Soybean plant response rating [1, 21]: 0
Soybean plant response rating [1, 22]: 0
Plant response rating, Soybean [1, 23]: 1
Soybean plant response rating [1, 24]: 2
Crabgrass plant response rating [2, 17]: 0
Crabgrass plant response rating [2, 18]: 0
Crabgrass plant response rating (0 to 10 scale) [2, 19]: 2
Crabgrass plant response rating [2, 20]: 4
Crabgrass plant response rating [2, 21]: 6
Crabgrass plant response rating [2, 22]: 0
Plant response rating, Crabgrass [2, 23]: 2
Crabgrass plant response rating [2, 24]: 7
Sugarbeets plant response rating [3, 17]: 0
Sugarbeets plant response rating [3, 18]: 0
Sugarbeets plant response rating (0 to 10 scale) [3, 19]: 0
Sugarbeets plant response rating [3, 20]: 0
Sugarbeets plant response rating [3, 21]: 0
Sugarbeets plant response rating [3, 22]: 0
Plant response rating, Sugarbeets [3, 23]: 0
Sugarbeets plant response rating [3, 24]: 0
B. signalgrass plant response rating [4, 17]: 0
B. signalgrass plant response rating [4, 18]: 0
B. signalgrass plant response rating (0 to 10 scale) [4, 19]: 0
B. signalgrass plant response rating [4, 20]: 0
B. signalgrass plant response rating [4, 21]: 0
B. signalgrass plant response rating [4, 22]: 0
Plant response rating, B. signalgrass [4, 23]: 0
B. signalgrass plant response rating ([4]; Rate 500 g/ha, Postemergence, scale 0 to 10, 0 no effect, 10 complete control): 0
S. Flatsedge plant response rating [5, 25]: 0
Plant response rating, S. Flatsedge [5, 26]: 0
S. Flatsedge plant response rating [5, 27]: 0
S. Flatsedge plant response rating [5, 28]: 0
Rice plant response rating [6, 25]: 0
Plant response rating, Rice [6, 26]: 0
Rice plant response rating [6, 27]: 0
Rice plant response rating [6, 28]: 0
Cocklebur plant response rating [7, 17]: 0
Cocklebur plant response rating [7, 18]: 0
Cocklebur plant response rating (0 to 10 scale) [7, 19]: 0
Cocklebur plant response rating [7, 20]: 0
Cocklebur plant response rating [7, 21]: 0
Cocklebur plant response rating [7, 22]: 0
Plant response rating, Cocklebur [7, 23]: 0
Cocklebur plant response rating [7, 24]: 0
Wild oats plant response rating [8, 18]: 0
Wild oats plant response rating (0 to 10 scale) [8, 19]: 0
Wild oats plant response rating [8, 20]: 0
Wild oats plant response rating [8, 21]: 0
Plant response rating, Wild oats [8, 23]: 0
Wild oats plant response rating [8, 24]: 0
Barnyardgrass plant response rating [9, 25]: 0
Plant response rating, Barnyardgrass [9, 26]: 0
Barnyardgrass plant response rating [9, 27]: 0
Barnyardgrass plant response rating [9, 28]: 0
Velvetleaf plant response rating [10, 18]: 0
Velvetleaf plant response rating (0 to 10 scale) [10, 19]: 0
Velvetleaf plant response rating [10, 20]: 0
Velvetleaf plant response rating [10, 21]: 0
Plant response rating, Velvetleaf [10, 23]: 0
Velvetleaf plant response rating [10, 24]: 0
Redroot pigweed plant response rating [11, 17]: 0
Redroot pigweed plant response rating [11, 18]: 0
Redroot pigweed plant response rating (0 to 10 scale) [11, 19]: 0
Redroot pigweed plant response rating [11, 20]: 0
Redroot pigweed plant response rating [11, 21]: 0
Redroot pigweed plant response rating [11, 22]: 0
Plant response rating, Redroot pigweed [11, 23]: 0
Redroot pigweed plant response rating [11, 24]: 0
Rape plant response rating [12, 17]: 0
Rape plant response rating [12, 18]: 0
Rape plant response rating (0 to 10 scale) [12, 19]: 0
Rape plant response rating [12, 20]: 0
Rape plant response rating [12, 21]: 0
Rape plant response rating [12, 22]: 0
Plant response rating, Rape [12, 23]: 0
Rape plant response rating [12, 24]: 0
Ducksalad plant response rating [13, 25]: 0
Plant response rating, Ducksalad [13, 26]: 0
Ducksalad plant response rating [13, 27]: 0
Ducksalad plant response rating [13, 28]: 0
Morningglory plant response rating [14, 17]: 1
Morningglory plant response rating [14, 18]: 0
Morningglory plant response rating (0 to 10 scale) [14, 19]: 0
Morningglory plant response rating [14, 20]: 0
Morningglory plant response rating [14, 21]: 3
Morningglory plant response rating [14, 22]: 0
Plant response rating, Morningglory [14, 23]: 1
Morningglory plant response rating [14, 24]: 1
Bedstraw plant response rating [15, 17]: 0
Bedstraw plant response rating [15, 18]: 0
Bedstraw plant response rating (0 to 10 scale) [15, 19]: 0
Bedstraw plant response rating [15, 20]: 0
Bedstraw plant response rating [15, 21]: 0
Bedstraw plant response rating [15, 22]: 0
Plant response rating, Bedstraw [15, 23]: 0
Corn plant response rating [16, 17]: 0
Corn plant response rating [16, 18]: 0
Corn plant response rating (0 to 10 scale) [16, 19]: 0
Corn plant response rating [16, 20]: 0
Corn plant response rating [16, 21]: 0
Corn plant response rating [16, 22]: 0
Plant response rating, Corn [16, 23]: 0
Corn plant response rating [16, 24]: 0
